Data reported in article PMC10221418, “The Specific Binding and Promotion Effect of Azoles on Human Aldo-Keto Reductase 7A2” (Metabolites, 2023).

Experiments:
human AKR7A2 [1] = biological target: T1, human AKR7A2 (Homo sapiens, UniProt O43488); test: Biacore assays: binding of azole drugs and 2-CBA to immobilized AKR7A2; conditions: 25 °C; for kd: 1:1 binding model; for Kd: KD calculated by kd/ka
T1 construct: made in house; host or cells: E. coli BL21 (DE3) pLysS, pET-28a vector
Protocol: All experiments were performed on a Biacore 8k instrument (GE, Healthcare). According to the manufacturer’s handbook, about 1 mg/mL of freshly purified AKR7A2 protein was diluted with 10 mM sodium acetate buffer (pH 5.0) and was immobilized on a sensor chip CM5, via amine coupling, to a level of ~20,000 resonance units (RU). A reference surface was prepared in parallel with the addition of the buffer and was used for the subtraction of nonspecific binding. The analytes 2-CBA and azole drugs were diluted in a running buffer containing 2% DMSO. […] All samples were injected at a flow rate of 30 μL/min. The experimental sensorgrams were analyzed by Biacore 8k Evaluation Software Version 1.1.1.7442. The resulting curves were fitted with a 1:1 binding model, which gave the kinetic constants (ka, kd, and KD). All measurements were repeated in at least three independent experiments.

human AKR7A2 [2] = biological target: T1, human AKR7A2; test: Steady-state kinetics of AKR7A2 catalyzing 2-CBA in the absence or presence of azole drugs; assay type: biochemical; conditions: for effect on catalytic efficiency (kcat/Km) of AKR7A2 catalyzing 2-CBA: compared to absence of drug; for kcat / increment of kcat/Km compared with the absence of the drug: substrate 2-CBA; for increment of kcat/Km compared with the absence of the drug: highest concentration of drug (50 μM; fluconazole 100 μM)
Protocol: (§1) The steady-state kinetic parameters of AKR7A2 catalyzing 2-CBA were measured on a UV-2550 spectrophotometer (SHIMADZU, Japan) in the absence or presence of azole drugs. All drugs were dissolved with DMSO. Fluconazole, voriconazole, and ketoconazole were all made up of 2, 5, and 10 mM of mother solution. […] The steady-state kinetic assays were performed, as before, with some modifications. […] The reactions were initiated by the addition of 2-CBA and were monitored for 4 min at 25 °C. […] The kinetic data were fitted to the Michaelis-Menten equation [56, 57] using GraphPad Prism 8.0 (GraphPad Software, San Diego, CA, USA). The kinetic parameters Km and kcat were generated by the fitting. The resulting data were expressed as the mean ± standard deviation (SD) based on at least three independent experiments. Statistical significance was analyzed by ANOVA, and the significance was defined as * p < 0.05, ** p < 0.01, *** p < 0.001, or **** p < 0.0001.

human AKR7A2 [3] = biological target: T1, human AKR7A2; test: Steady-state kinetics of AKR7A2 with SSA as a substrate in the absence or presence of voriconazole; assay type: biochemical; conditions: for kcat: substrate SSA
Protocol: as §1, with “The steady-state kinetic parameters of AKR7A2 catalyzing 2-CBA were measured on a UV-2550 spectrophotometer (SHIMADZU, Japan) in the absence or presence of azole drugs.” left out, “The reactions were initiated by the addition of 2-CBA and were monitored for 4 min at 25 °C.” left out

[4] = set-up: method as in PMID 12942409; conditions: patients, after administration; cited from earlier work

T1 sequence (O43488 39-359): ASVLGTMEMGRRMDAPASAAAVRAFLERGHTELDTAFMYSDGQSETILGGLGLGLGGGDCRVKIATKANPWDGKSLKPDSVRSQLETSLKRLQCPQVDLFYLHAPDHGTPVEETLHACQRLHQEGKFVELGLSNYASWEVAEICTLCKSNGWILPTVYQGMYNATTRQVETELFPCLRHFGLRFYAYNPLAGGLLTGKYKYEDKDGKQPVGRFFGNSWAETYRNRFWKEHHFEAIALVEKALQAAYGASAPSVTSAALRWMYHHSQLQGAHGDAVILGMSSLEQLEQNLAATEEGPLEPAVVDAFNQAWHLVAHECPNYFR

SMILES	kd (human AKR7A2 [1])	Kd (human AKR7A2 [1]) [µM]	effect on catalytic efficiency (kcat/Km) of AKR7A2 catalyzing 2-CBA (human AKR7A2 [2])	kcat (human AKR7A2 [2]; drug concentration 5 μM) [s⁻¹]	kcat (human AKR7A2 [2]; drug concentration 20 μM) [s⁻¹]	kcat (human AKR7A2 [2]; drug concentration 50 μM) [s⁻¹]	kcat (human AKR7A2 [2]; drug concentration 100 μM) [s⁻¹]	increment of kcat/Km compared with the absence of the drug (human AKR7A2 [2]) [%]	effect on catalysis of AKR7A2 with SSA as a substrate (human AKR7A2 [3]; concentration range of 0–50 µM)	kcat (human AKR7A2 [3]; drug concentration 5 μM) [s⁻¹]	kcat (human AKR7A2 [3]; drug concentration 20 μM) [s⁻¹]	kcat (human AKR7A2 [3]; drug concentration 50 μM) [s⁻¹]	cerebrospinal fluid concentrations [4] [µg/mL]
O=Cc1ccccc1C(=O)O [2-CBA, 2-carboxybenzaldehyde]	0.0229 ± 0.0202 s⁻¹	19.3 ± 14.9											
Clc1ccc(COC(Cn2ccnc2)c2ccc(Cl)cc2Cl)cc1 (centres unmarked) [econazole]	15.9 ± 0.72 (s^−1) × 10^2	565 ± 84	did not significantly change	1.194 ± 0.0285	1.213 ± 0.0258	1.262 ± 0.0635							
OC(Cn1cncn1)(Cn1cncn1)c1ccc(F)cc1F [fluconazole]	0.0218 ± 0.0046 s⁻¹	8.11 ± 4.83	enhanced significantly		1.195 ± 0.0173	1.221 ± 0.0192	1.072 ± 0.0185	64					
CCC(C)n1ncn(-c2ccc(N3CCN(c4ccc(OCC5COC(Cn6cncn6)(c6ccc(Cl)cc6Cl)O5)cc4)CC3)cc2)c1=O (centres unmarked) [itraconazole]	0.0263 ± 0.0035 s⁻¹	0.81 ± 0.44	enhanced significantly	1.342 ± 0.0237	1.219 ± 0.0167	1.107 ± 0.023		35					
CC(=O)N1CCN(c2ccc(OCC3COC(Cn4ccnc4)(c4ccc(Cl)cc4Cl)O3)cc2)CC1 (centres unmarked) [ketoconazole]	12.6 ± 1.91 (s^−1) × 10^2	1800 ± 438	did not significantly change		1.302 ± 0.0268	1.271 ± 0.0303	1.44 ± 0.0348						
Clc1ccc(COC(Cn2ccnc2)c2ccc(Cl)cc2Cl)c(Cl)c1 (centres unmarked) [miconazole]	0.0536 ± 0.0017 s⁻¹	84.9 ± 7.21	enhanced significantly	1.205 ± 0.0228	1.196 ± 0.0235	1.236 ± 0.0292		67					
CC[C@@H]([C@H](C)O)n1ncn(-c2ccc(N3CCN(c4ccc(OC[C@@H]5CO[C@@](Cn6cncn6)(c6ccc(F)cc6F)C5)cc4)CC3)cc2)c1=O [posaconazole]	0.0298 ± 0.0059 s⁻¹	1.35 ± 0.44	enhanced significantly	1.239 ± 0.0212	1.273 ± 0.029	1.029 ± 0.0295		74					
C[C@@H](c1ncncc1F)[C@](O)(Cn1cncn1)c1ccc(F)cc1F [voriconazole]	0.0168 ± 0.0072 s⁻¹	2.98 ± 2.11	did not significantly change		1.126 ± 0.0163	1.237 ± 0.0168	1.258 ± 0.0248		efficiently promote the catalysis	1.297 ± 0.0377	1.306 ± 0.024	1.326 ± 0.0222	0.08 to 3.93
